Experimental data: patent US10487093B2, “Heterocyclic compounds, in particular 2-oxo-4,4,5,5,6,6,7,7-octahydrobenzoxazole derivatives, and their use as antibacterial compounds” (priority 2016, dated 2019)
Converted amounts (≈) assume the structure as drawn.

Assays:
[1] = system: human hepatic cell line (HepG2 ATCC HB-8065); assay: Human cell viability assay (CellTiter-Glo); conditions: Homo sapiens, HepG2, 24 h, read-out: IC50 (μg/mL) HepG2
[2] = system: Mycobacterium smegmatis ATCC 19420; assay: MIC, broth microdilution (CLSI) versus planktonic bacteria; assay type: cell-based; conditions: Mycolicibacterium smegmatis, ATCC19420, 16-20 h, mode of three independent experiments, read-out: MIC, Ms ATCC 19420
[3] = system: Streptococcus pneumoniae ATCC 49619; assay: as above; assay type: cell-based; conditions: ATCC49619; Streptococcus pneumoniae ATCC 49619; 16-20 h; mode of three independent experiments; read-out: MIC, Sp ATCC 49619
[4] = system: Acinetobacter baumannii NCTC 13420; assay: as above; assay type: cell-based; conditions: NCTC13420; Acinetobacter baumannii NCTC 13420; 16-20 h; mode of three independent experiments; read-out: MIC, Ab NCTC 13420
[5] = system: Haemophilus influenzae ATCC 49247; assay: as above; assay type: cell-based; conditions: ATCC49247; Haemophilus influenzae ATCC 49247; 16-20 h; mode of three independent experiments; read-out: MIC, Hi ATCC 49247
[6] = system: Enterobacter cloacae NCTC 13406; assay: as above; assay type: cell-based; conditions: NCTC13406; Enterobacter cloacae NCTC 13406; 16-20 h; mode of three independent experiments; read-out: MIC, Ecl NCTC 13406
[7] = system: Staphylococcus aureus ATCC 29213; assay: as above; assay type: cell-based; conditions: ATCC29213; Staphylococcus aureus ATCC 29213; 16-20 h; mode of three independent experiments; read-out: MIC, Sa ATCC 29213
[8] = system: Escherichia coli ATCC 25922; assay: as above; assay type: cell-based; conditions: ATCC25922; Escherichia coli ATCC 25922; 16-20 h; mode of three independent experiments; read-out: MIC, Ec ATCC 25922
[9] = system: Pseudomonas aeruginosa ATCC 27853; assay: as above; assay type: cell-based; conditions: ATCC27853; Pseudomonas aeruginosa ATCC 27853; 16-20 h; mode of three independent experiments; read-out: MIC, Pa ATCC 27853
[10] = system: Enterococcus faecium ATCC 19434; assay: as above; assay type: cell-based; conditions: ATCC19434, 16-20 h, mode of three independent experiments, read-out: MIC, Efm ATCC 19434
[11] = system: E. coli MG1655 S83L; assay type: cell-based, Escherichia coli; conditions: compared to the isogenic parent strain E. coli MG1655; S83L mutation on DNA gyrase subunit GyrA
[12] = system: Acinetobacter baumannii ATCC 19606; assay: MIC, broth microdilution (CLSI) versus planktonic bacteria; assay type: cell-based; conditions: ATCC19606; Acinetobacter baumannii ATCC 19606; 16-20 h; mode of three independent experiments; read-out: MIC, Ab ATCC 19606
[13] = system: E. coli NCTC 13476; assay: as above; assay type: cell-based; conditions: NCTC13476; Escherichia coli NCTC 13476; 16-20 h; mode of three independent experiments; read-out: MIC, Ec NCTC 13476
[14] = system: Enterococcus faecalis ATCC 29212; assay: as above; assay type: cell-based; conditions: ATCC29212, 16-20 h, mode of three independent experiments, read-out: MIC, Ef ATCC 29212
[15] = system: fluoroquinolone-resistant Enterococcus faecium ATCC 700221; assay: as above; assay type: cell-based; conditions: ATCC700221, 16-20 h, mode of three independent experiments, read-out: MIC, Efm ATCC 700221
[16] = system: E. coli MG1655; assay: as above; assay type: cell-based, Escherichia coli; conditions: Escherichia coli, MG1655, read-out: MIC, Ec MG1655 WT
[17] = system: E. coli MG1655 D87G; assay type: cell-based, Escherichia coli; conditions: compared to the isogenic parent strain E. coli MG1655; D87G mutation on DNA gyrase subunit GyrA
[18] = system: E. coli ATCC BAA-2452; assay: MIC, broth microdilution (CLSI) versus planktonic bacteria; assay type: cell-based; conditions: Escherichia coli ATCC BAA-2452; 16-20 h; mode of three independent experiments; read-out: MIC, Ec ATCC BAA 2452

Row | Structure (SMILES) | IC50 [1] [µg/mL] | MIC [2] [µg/mL] | MIC [3] [µg/mL] | MIC [4] [µg/mL] | MIC [5] [µg/mL] | MIC [6] [µg/mL] | MIC [7] [µg/mL] | MIC [8] [µg/mL] | MIC [9] [µg/mL] | MIC [10] [µg/mL] | Fold increase in MIC, E. coli MG1655 S83L [11] [fold] | MIC [12] [µg/mL] | MIC [13] [µg/mL] | MIC [14] [µg/mL] | MIC [15] [µg/mL] | MIC [16] [µg/mL] | Fold increase in MIC, E. coli MG1655 D87G [17] [fold] | MIC [18] [µg/mL]
1 | N#Cc1ccc2ccc(=O)n(CCN(CCN)[C@H]3CC[C@H]4[C@@H](C3)OC(=O)N4c3ccc4c(n3)NC(=O)CO4)c2c1 [Compound 58, 1-(2-{[(3aS,6S,7aR)-2-oxo-3-{3-oxo-2H,3H,4H-pyrido[3,2-b][1,4]oxazin-6-yl}-octahydro-1,3-benzoxazol-6-yl](2-aminoethyl)amino}ethyl)-2-oxo-1,2-dihydroquinoline-7-carbonitrile] | > 100 | 1 to 10 (≈ 1.84 to 18.4 µM) | > 100 | > 100 | > 100 | > 100 | < 1 | 10 to 100 (≈ 18.4 to 184 µM) | 1 to 10 (≈ 1.84 to 18.4 µM) |  |  |  |  |  |  |  |  | 
2 | NCCCOc1ccc2ccc(=O)n(CCN[C@H]3CC[C@H]4[C@@H](C3)OC(=O)N4c3ccc4c(n3)NC(=O)CO4)c2n1 [Compound 5, 1-(2-{[(3aS,6S,7aR)-2-oxo-3-{3-oxo-2H,3H,4H-pyrido[3,2-b][1,4]oxazin-6-yl}-octahydro-1,3-benzoxazol-6-yl]amino}ethyl)-7-(3-aminopropoxy)-1,2-dihydro-1,8-naphthyridin-2-one] | > 100 | 1 to 10 (≈ 1.82 to 18.2 µM) | 10 to 100 (≈ 18.2 to 182 µM) | > 100 | > 100 | > 100 | 1 to 10 (≈ 1.82 to 18.2 µM) | 10 to 100 (≈ 18.2 to 182 µM) | 1 to 10 (≈ 1.82 to 18.2 µM) |  |  |  |  |  |  |  |  | 
3 | NS(=O)(=O)c1ccc(Oc2ccc3ccc(=O)n(CCN[C@@H]4CC[C@@H]5[C@@H](C4)OC(=O)N5c4ccc5c(n4)NC(=O)CO5)c3n2)cc1 [Compound 8, 4-{[8-(2-{[(3aR,6R,7aR)-2-oxo-3-{3-oxo-2H,3H,4H-pyrido[3,2-b][1,4]oxazin-6-yl}-octahydro-1,3-benzoxazol-6-yl]amino}ethyl)-7-oxo-7,8-dihydro-1,8-naphthyridin-2-yl]oxy}benzene-1-sulphonamide] | 10 to 100 (≈ 15.4 to 154 µM) | < 1 | 1 to 10 (≈ 1.54 to 15.4 µM) | 10 to 100 (≈ 15.4 to 154 µM) | < 1 | 10 to 100 (≈ 15.4 to 154 µM) | < 1 | 1 to 10 (≈ 1.54 to 15.4 µM) | 10 to 100 (≈ 15.4 to 154 µM) |  |  |  |  |  |  |  |  | 
4 | NCCOc1ccc2ccc(=O)n(CCN[C@H]3CC[C@H]4[C@@H](C3)OC(=O)N4c3ccc4c(n3)NC(=O)CO4)c2c1 [Compound 9, 1-(2-{[(3aS,6S,7aR)-2-oxo-3-{3-oxo-2H,3H,4H-pyrido[3,2-b][1,4]oxazin-6-yl}-octahydro-1,3-benzoxazol-6-yl]amino}ethyl)-7-(2-aminoethoxy)-1,2-dihydroquinolin-2-one] | > 100 | > 100 | 10 to 100 (≈ 18.7 to 187 µM) | > 100 | 10 to 100 (≈ 18.7 to 187 µM) | > 100 | 1 to 10 (≈ 1.87 to 18.7 µM) | 1 to 10 (≈ 1.87 to 18.7 µM) | 1 to 10 (≈ 1.87 to 18.7 µM) |  |  |  |  |  |  |  |  | 
5 | O=C1COc2ccc(N3C(=O)O[C@@H]4C[C@@H](NCCn5c(=O)ccc6ccc(OCCO)nc65)CC[C@@H]43)nc2N1 [Compound 6, 1-(2-{[(3aS,6S,7aR)-2-oxo-3-{3-oxo-2H,3H,4H-pyrido[3,2-b][1,4]oxazin-6-yl}-octahydro-1,3-benzoxazol-6-yl]amino}ethyl)-7-(2-hydroxyethoxy)-1,2-dihydro-1,8-naphthyridin-2-one] | > 100 | < 1 | < 1 | 10 to 100 (≈ 18.6 to 186 µM) | 1 to 10 (≈ 1.86 to 18.6 µM) | 10 to 100 (≈ 18.6 to 186 µM) | 1 to 10 (≈ 1.86 to 18.6 µM) | 1 to 10 (≈ 1.86 to 18.6 µM) | 1 to 10 (≈ 1.86 to 18.6 µM) |  |  |  |  |  |  |  |  | 
6 | COc1ccc2ccc(=O)n(CCN[C@H]3CC[C@H]4[C@H](C3)OC(=O)N4c3ccc4c(n3)NC(=O)CS4)c2n1 [Compound 61, 1-(2-{[(3aS,6S,7aS)-2-oxo-3-{3-oxo-2H,3H,4H-pyrido[3,2-b][1,4]thiazin-6-yl}-octahydro-1,3-benzoxazol-6-yl]amino}ethyl)-7-methoxy-1,2-dihydro-1,8-naphthyridin-2-one] | 10 to 100 (≈ 19.1 to 191 µM) |  | < 1 | < 1 | < 1 | < 1 | < 1 | < 1 | < 1 | < 1 | 1 | < 1 | < 1 | < 1 | < 1 | < 1 | 1 | < 1
7 | N#Cc1cccc(-c2cccc(CN[C@@H]3CC[C@@H]4[C@@H](C3)OC(=O)N4c3ccc4c(n3)NC(=O)CO4)c2O)n1 [Compound 40, 6-[3-({[(3aR,6R,7aR)-2-oxo-3-{3-oxo-2H,3H,4H-pyrido[3,2-b][1,4]oxazin-6-yl}-octahydro-1,3-benzoxazol-6-yl]amino}methyl)-2-hydroxyphenyl]pyridine-2-carbonitrile] | 10 to 100 (≈ 19.5 to 195 µM) |  | 1 to 10 (≈ 1.95 to 19.5 µM) | < 1 | < 1 | < 1 | < 1 | < 1 | < 1 | < 1 | 1 | < 1 | < 1 | < 1 | < 1 | < 1 | 1 | < 1
8 | CCCOc1ccc2ccc(=O)n(CCN[C@H]3CC[C@H]4[C@H](C3)OC(=O)N4c3ccc4c(n3)NC(=O)CO4)c2c1 [Compound 91, 1-(2-{[(3aS,6S,7aS)-2-oxo-3-{3-oxo-2H,3H,4H-pyrido[3,2-b][1,4]oxazin-6-yl}-octahydro-1,3-benzoxazol-6-yl]amino}ethyl)-7-propoxy-1,2-dihydroquinolin-2-one] | 10 to 100 (≈ 18.7 to 187 µM) |  | < 1 | < 1 | < 1 | 1 to 10 (≈ 1.87 to 18.7 µM) | < 1 | < 1 | 10 to 100 (≈ 18.7 to 187 µM) | 1 to 10 (≈ 1.87 to 18.7 µM) | 0.5 | < 1 | 1 to 10 (≈ 1.87 to 18.7 µM) | 1 to 10 (≈ 1.87 to 18.7 µM) | 1 to 10 (≈ 1.87 to 18.7 µM) | < 1 | 1 | < 1
9 | NCCOc1ccc2ccc(=O)n(CCN[C@H]3CC[C@H]4[C@@H](C3)OC(=O)N4c3ccc4c(n3)NC(=O)CO4)c2n1 [Compound 10, 1-(2-{[(3aS,6S,7aR)-2-oxo-3-{3-oxo-2H,3H,4H-pyrido[3,2-b][1,4]oxazin-6-yl}-octahydro-1,3-benzoxazol-6-yl]amino}ethyl)-7-(2-aminoethoxy)-1,2-dihydro-1,8-naphthyridin-2-one] | > 100 | > 100 | 10 to 100 (≈ 18.7 to 187 µM) | > 100 | 10 to 100 (≈ 18.7 to 187 µM) | > 100 | 10 to 100 (≈ 18.7 to 187 µM) | 1 to 10 (≈ 1.87 to 18.7 µM) | 1 to 10 (≈ 1.87 to 18.7 µM) |  |  |  |  |  |  |  |  | 
10 | COc1cccc(-c2cccc(CN[C@@H]3CC[C@@H]4[C@@H](C3)OC(=O)N4c3ccc4c(n3)NC(=O)CO4)c2)n1 [Compound 80, (3aR,6R,7aR)-6-({[3-(6-methoxypyridin-2-yl)phenyl]methyl}amino)-3-{3-oxo-2H,3H,4H-pyrido[3,2-b][1,4]oxazin-6-yl}-octahydro-1,3-benzoxazol-2-one] | 10 to 100 (≈ 19.9 to 199 µM) |  | 1 to 10 (≈ 1.99 to 19.9 µM) | < 1 | < 1 | 1 to 10 (≈ 1.99 to 19.9 µM) | < 1 | < 1 | 1 to 10 (≈ 1.99 to 19.9 µM) | 1 to 10 (≈ 1.99 to 19.9 µM) | 1 | < 1 | < 1 | < 1 | 1 to 10 (≈ 1.99 to 19.9 µM) | < 1 | 1 | < 1
